Experimental findings from patent US20100130477A1, “Spirocyclobutyl Piperidine Derivatives” (ASTRAZENECA AB, priority 2008, published 2010) are described below.

T1 sequence (Q9Y5N1 whole entry): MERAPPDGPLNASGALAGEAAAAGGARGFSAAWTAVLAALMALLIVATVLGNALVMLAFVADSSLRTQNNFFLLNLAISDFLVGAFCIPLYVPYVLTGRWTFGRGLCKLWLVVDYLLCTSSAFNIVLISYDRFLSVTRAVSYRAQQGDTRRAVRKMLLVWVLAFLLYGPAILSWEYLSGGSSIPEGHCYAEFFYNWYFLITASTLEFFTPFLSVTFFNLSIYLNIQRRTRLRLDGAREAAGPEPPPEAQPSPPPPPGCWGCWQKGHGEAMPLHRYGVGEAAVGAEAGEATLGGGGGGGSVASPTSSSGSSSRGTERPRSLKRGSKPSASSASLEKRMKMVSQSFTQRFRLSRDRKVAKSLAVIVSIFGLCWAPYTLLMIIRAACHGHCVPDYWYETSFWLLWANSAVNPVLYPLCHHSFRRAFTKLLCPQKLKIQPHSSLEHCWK

This assay has as its target T1, human Histamine H3 receptor (hH3R) (Homo sapiens, UniProt Q9Y5N1).
T1 construct: expressed in transfected cells; host or cells: CHO cells (Chinese Hamster Ovary); membranes
Nature of the assay: GTPγS Binding Assay (antagonist activity, [35S]GTPγS, (R)-α-methyl histamine 30 nM). It is filed as biochemical. Conditions: membranes from CHO cells expressing hH3R, 90 minutes at room temperature. As to the method: Guanosine 5′-O-(3-[^35S]thio)triphosphate [GTPγS] Binding Assay
A GTPγS binding assay can be used to investigate antagonist properties of compounds in CHO cells (Chinese Hamster Ovary) transfected with human Histamine H3 receptor (hH3R). Membranes from CHO cells expressing hH3R (10 μg/well) are diluted in GTPγS assay buffer (20 mM Hepes, 10 mM MgCl2, 100 mM NaCl, pH 7.4) and preincubated with saponine (3 μg/ml), GDP (10 μM) and PVT-WGA SPA beads (125 μg/well) (Amersham) for 30 minutes. To determine antagonist activity, (R)-α-methyl histamine (30 nM) is added in 96 well SPA plate with [^35S]GTPγS (0.2 nM) and various concentration of H3R antagonists. The GTPγS binding assay is started with addition of the mixture membrane/saponine/GDP and incubated for 90 minutes at room temperature. The amount of bound [^35S]GTPγS is determined by using the MicroBeta Trilux counter (PerkinElmer). The percentage of [^35S]GTPγS bound in each sample is calculated as a percentage of that bound control sample incubated in absence of H3 antagonist. Duplicate determinations are obtained for each concentration, and the data are analyzed using ExcelFit4 to obtain the IC50.
Regarding `CC(C)N1CCN(C(=O)C2CC3(CCN(C(=O)c4cccnc4)CC3)C2)CC1` [Example 36, (4-isopropylpiperazin-1-yl)(7-nicotinoyl-7-azaspiro[3.5]nonan-2-yl)methanone], the IC50 worked out at 67.4 nM.
Consider `CC(C)N1CCN(C(=O)C2CC3(CCN(C(=O)N(C)C)CC3)C2)CC1` [Example 37, 2-(4-isopropylpiperazine-1-carbonyl)-N,N-dimethyl-7-azaspiro[3.5]nonane-7-carboxamide], for which the IC50 was 114 nM.
Under `O=C(C1CC2(CCN(S(=O)(=O)c3ccc(F)cc3)CC2)C1)N1CCCN(C2CCC2)CC1` [Example 38, (4-cyclobutyl-1,4-diazepan-1-yl)(7-(4-fluorophenylsulfonyl)-7-azaspiro[3.5]nonan-2-yl)methanone] stands 8.9 nM; under `O=C(C1CC2(CCN(S(=O)(=O)c3cccc(F)c3)CC2)C1)N1CCCN(C2CCC2)CC1` [Example 39, (4-cyclobutyl-1,4-diazepan-1-yl)(7-(3-fluorophenylsulfonyl)-7-azaspiro[3.5]nonan-2-yl)methanone], 9.97 nM; under `O=C(C1CC2(CCN(S(=O)(=O)c3ccccc3F)CC2)C1)N1CCCN(C2CCC2)CC1` [Example 40, (4-cyclobutyl-1,4-diazepan-1-yl)(7-(2-fluorophenylsulfonyl)-7-azaspiro[3.5]nonan-2-yl)methanone], 6.22 nM.
As to `O=C(C1CC2(CCN(S(=O)(=O)c3ccccc3)CC2)C1)N1CCCN(C2CCC2)CC1` [Example 41, (4-cyclobutyl-1,4-diazepan-1-yl)(7-(phenylsulfonyl)-7-azaspiro[3.5]nonan-2-yl)methanone], the IC50 turned out to be 8.71 nM.
With `O=C(c1ccccn1)N1CCC2(CC1)CC(C(=O)N1CCCN(C3CCC3)CC1)C2` [Example 42, (4-cyclobutyl-1,4-diazepan-1-yl)(7-picolinoyl-7-azaspiro[3.5]nonan-2-yl)methanone] the figure was 15 nM; with `Cc1cc(C(=O)N2CCC3(CC2)CC(C(=O)N2CCCN(C4CCC4)CC2)C3)ccn1` [Example 43, (4-cyclobutyl-1,4-diazepan-1-yl)(7-(2-methylisonicotinoyl)-7-azaspiro[3.5]nonan-2-yl)methanone], 8.87 nM; with `Cc1cnccc1C(=O)N1CCC2(CC1)CC(C(=O)N1CCCN(C3CCC3)CC1)C2` [Example 44, (4-cyclobutyl-1,4-diazepan-1-yl)(7-(3-methylisonicotinoyl)-7-azaspiro[3.5]nonan-2-yl)methanone], 8.45 nM.
Under `O=C(c1ccncc1)N1CCC2(CC1)CC(C(=O)N1CCCN(C3CCC3)CC1)C2` [Example 45, (4-cyclobutyl-1,4-diazepan-1-yl)(7-isonicotinoyl-7-azaspiro[3.5]nonan-2-yl)methanone] stands 7.61 nM; under `Cc1cncc(C(=O)N2CCC3(CC2)CC(C(=O)N2CCCN(C4CCC4)CC2)C3)c1` [Example 46, (4-cyclobutyl-1,4-diazepan-1-yl)(7-(5-methylnicotinoyl)-7-azaspiro[3.5]nonan-2-yl)methanone], 5.75 nM.
As for `O=C(c1cccnc1)N1CCC2(CC1)CC(C(=O)N1CCCN(C3CCC3)CC1)C2` [Example 47, (4-cyclobutyl-1,4-diazepan-1-yl)(7-nicotinoyl-7-azaspiro[3.5]nonan-2-yl)methanone], the IC50 was found to be 8.27 nM.
Turning to `O=C(c1ccccc1)N1CCC2(CC1)CC(C(=O)N1CCCN(C3CCC3)CC1)C2` [Example 48, (7-benzoyl-7-azaspiro[3.5]nonan-2-yl)(4-cyclobutyl-1,4-diazepan-1-yl)methanone], the IC50 amounted to 12.7 nM.
In turn, `N#Cc1ccc(C(=O)N2CCC3(CC2)CC(C(=O)N2CCCN(C4CCC4)CC2)C3)cc1` [Example 49, 4-(2-(4-cyclobutyl-1,4-diazepane-1-carbonyl)-7-azaspiro[3.5]nonane-7-carbonyl)benzonitrile] returned an IC50 of 5.28 nM.
In the case of `N#Cc1cccc(C(=O)N2CCC3(CC2)CC(C(=O)N2CCCN(C4CCC4)CC2)C3)c1` [Example 50, 3-(2-(4-cyclobutyl-1,4-diazepane-1-carbonyl)-7-azaspiro[3.5]nonane-7-carbonyl)benzonitrile], the IC50 amounted to 7.62 nM.
`N#Cc1ccccc1C(=O)N1CCC2(CC1)CC(C(=O)N1CCCN(C3CCC3)CC1)C2` [Example 51, 2-(2-(4-cyclobutyl-1,4-diazepane-1-carbonyl)-7-azaspiro[3.5]nonane-7-carbonyl)benzonitrile]: the IC50 was determined as 5.02 nM.
`CC(C)N1CCCN(C(=O)C2CC3(CCN(S(C)(=O)=O)CC3)C2)CC1` [Example 52, (4-isopropyl-1,4-diazepan-1-yl)(7-(methylsulfonyl)-7-azaspiro[3.5]nonan-2-yl)methanone] had an IC50 of 56.4 nM.
Compound `Cc1cc(C(=O)N2CCC3(CC2)CC(C(=O)N2CCCN(C(C)C)CC2)C3)ccn1` [Example 53, (4-isopropyl-1,4-diazepan-1-yl)(7-(2-methylisonicotinoyl)-7-azaspiro[3.5]nonan-2-yl)methanone] gave an IC50 of 160 nM.
With `CC(C)N1CCCN(C(=O)C2CC3(CCN(C(=O)c4ccncc4)CC3)C2)CC1` [Example 54, (7-isonicotinoyl-7-azaspiro[3.5]nonan-2-yl)(4-isopropyl-1,4-diazepan-1-yl)methanone] the figure was 161 nM; with `CC(C)N1CCCN(C(=O)C2CC3(CCN(C(=O)c4cccnc4)CC3)C2)CC1` [Example 55, (4-isopropyl-1,4-diazepan-1-yl)(7-nicotinoyl-7-azaspiro[3.5]nonan-2-yl)methanone], 115 nM.
With `CC(C)N1CCCN(C(=O)C2CC3(CCN(C(=O)N(C)C)CC3)C2)CC1` [Example 56, 2-(4-isopropyl-1,4-diazepane-1-carbonyl)-N,N-dimethyl-7-azaspiro[3.5]nonane-7-carboxamide], the IC50 was 269 nM.
`Cc1cc(C(=O)N2CCC3(CC2)CC(C(=O)N2CCN(C4CCC4)CC(C)(C)C2)C3)ccn1` [Example 57, (4-cyclobutyl-6,6-dimethyl-1,4-diazepan-1-yl)(7-(2-methylisonicotinoyl)-7-azaspiro[3.5]nonan-2-yl)methanone] came in with an IC50 of 707 nM.
With `CS(=O)(=O)N1CCC2(CC1)CC(C(=O)N1CCN(C3CCCC3)CC1)C2` [Example 58, (4-cyclopentylpiperazin-1-yl)(7-(methylsulfonyl)-7-azaspiro[3.5]nonan-2-yl)methanone], the IC50 is 63 nM.
With `C[C@H]1CN(C(=O)C2CC3(CCN(S(C)(=O)=O)CC3)C2)CCN1C1CCC1` [Example 59, ((S)-4-cyclobutyl-3-methylpiperazin-1-yl)(7-(methylsulfonyl)-7-azaspiro[3.5]nonan-2-yl)methanone] the figure was 368 nM; with `CC(C)N1CCN(C(=O)C2CC3(CCN(S(C)(=O)=O)CC3)C2)C[C@H]1C` [Example 60, ((R)-4-isopropyl-3-methylpiperazin-1-yl)(7-(methylsulfonyl)-7-azaspiro[3.5]nonan-2-yl)methanone], 177 nM; with `CC(C)N1CCN(C(=O)C2CC3(CCN(S(C)(=O)=O)CC3)C2)C[C@@H]1C` [Example 61, ((S)-4-isopropyl-3-methylpiperazin-1-yl)(7-(methylsulfonyl)-7-azaspiro[3.5]nonan-2-yl)methanone], 179 nM.
`C[C@@H]1CN(C2CCC2)CCN1C(=O)C1CC2(CCN(S(C)(=O)=O)CC2)C1` [Example 62, ((R)-4-cyclobutyl-2-methylpiperazin-1-yl)(7-(methylsulfonyl)-7-azaspiro[3.5]nonan-2-yl)methanone] gave an IC50 of 4.25 nM.
Under `C[C@H]1CN(C2CCC2)CCN1C(=O)C1CC2(CCN(S(C)(=O)=O)CC2)C1` [Example 63, ((S)-4-cyclobutyl-2-methylpiperazin-1-yl)(7-(methylsulfonyl)-7-azaspiro[3.5]nonan-2-yl)methanone] stands 21.2 nM.
`N#Cc1cnccc1C(=O)N1CCC2(CC1)CC(C(=O)N1CCN(C3CCC3)CC1)C2` [Example 64, 4-(2-(4-cyclobutylpiperazine-1-carbonyl)-7-azaspiro[3.5]nonane-7-carbonyl)nicotinonitrile] displayed an IC50 of 16.8 nM.
Under `O=C(C1CC2(CCN(c3cnccn3)CC2)C1)N1CCN(C2CCC2)CC1` [Example 65, (4-cyclobutylpiperazin-1-yl)(7-(pyrazin-2-yl)-7-azaspiro[3.5]nonan-2-yl)methanone] stands 51.7 nM; under `O=C(C1CC2(CCN(c3ccncc3)CC2)C1)N1CCN(C2CCC2)CC1` [Example 66, (4-cyclobutylpiperazin-1-yl)(7-(pyridin-4-yl)-7-azaspiro[3.5]nonan-2-yl)methanone], 10.1 nM.
In turn, `O=C(C1CC2(CCN(c3cncnc3)CC2)C1)N1CCN(C2CCC2)CC1` [Example 67, (4-cyclobutylpiperazin-1-yl)(7-(pyrimidin-5-yl)-7-azaspiro[3.5]nonan-2-yl)methanone] showed an IC50 of 22.9 nM.
